What was measured:
[1] = biological target: Receptor-type tyrosine-protein kinase FLT3 (Homo sapiens, UniProt P36888); experiment: Inhibition of FLT3 (unknown origin) incubated for 40 mins by radiometric kinase assay
[2] = biological target: Serine-protein kinase ATM (Homo sapiens) (UniProt Q13315); experiment: Inhibition of ATM (unknown origin) at 0.2 uM incubated for 40 mins by radiometric kinase assay relative to control
[3] = biological target: Serine/threonine-protein kinase B-raf (Homo sapiens) (UniProt P15056); experiment: Inhibition of B-Raf (unknown origin) at 0.2 uM incubated for 40 mins by radiometric kinase assay relative to control
[4] = biological target: Calcium/calmodulin-dependent protein kinase kinase 2 (Homo sapiens) (UniProt Q96RR4); experiment: Inhibition of CaMKK2 (unknown origin) at 0.2 uM incubated for 40 mins by radiometric kinase assay relative to control
[5] = biological target: CDK6/cyclin D3 (Homo sapiens) (UniProt P30281+Q00534); experiment: Inhibition of CDK6/cyclinD3 (unknown origin) at 0.2 uM incubated for 40 mins by radiometric kinase assay relative to control; format: protein-complex assay
[6] = biological target: Mast/stem cell growth factor receptor Kit (Homo sapiens) (UniProt P10721); experiment: Inhibition of cKit (unknown origin) at 0.2 uM incubated for 40 mins by radiometric kinase assay relative to control
[7] = system: Receptor-type tyrosine-protein kinase FLT3 (Homo sapiens), P36888 [D835Y]; experiment: Inhibition of FLT3 D835Y mutant (unknown origin) at 0.2 uM incubated for 40 mins by radiometric kinase assay relative to control
[8] = biological target: Vascular endothelial growth factor receptor 3 (Homo sapiens) (UniProt P35916); experiment: Inhibition of FLT4 (unknown origin) at 0.2 uM incubated for 40 mins by radiometric kinase assay relative to control
[9] = biological target: Tyrosine-protein kinase ITK/TSK (Homo sapiens) (UniProt Q08881); experiment: Inhibition of ITK (unknown origin) at 0.2 uM incubated for 40 mins by radiometric kinase assay relative to control
[10] = biological target: Mitogen-activated protein kinase 8 (Homo sapiens) (UniProt P45983); experiment: Inhibition of JNK1alpha1 (unknown origin) at 0.2 uM incubated for 40 mins by radiometric kinase assay relative to control
[11] = biological target: Mitogen-activated protein kinase 9 (Homo sapiens) (UniProt P45984); experiment: Inhibition of JNK2alpha2 (unknown origin) at 0.2 uM incubated for 40 mins by radiometric kinase assay relative to control
[12] = biological target: Dual specificity mitogen-activated protein kinase kinase 1 (Homo sapiens) (UniProt Q02750); experiment: Inhibition of MEK1 (unknown origin) at 0.2 uM incubated for 40 mins by radiometric kinase assay relative to control
[13] = biological target: Tyrosine-protein kinase receptor TYRO3 (Homo sapiens) (UniProt Q06418); experiment: Inhibition of RSE (unknown origin) at 0.2 uM incubated for 40 mins by radiometric kinase assay relative to control
[14] = biological target: Tyrosine-protein kinase SYK (Homo sapiens) (UniProt P43405); experiment: Inhibition of SYK (unknown origin) at 0.2 uM incubated for 40 mins by radiometric kinase assay relative to control
[15] = biological target: Death-associated protein kinase 3 (Homo sapiens) (UniProt O43293); experiment: Inhibition of ZIPK (unknown origin) at 0.2 uM incubated for 40 mins by radiometric kinase assay relative to control
JeKo-1 [16] = experiment: Potency index, ratio of ibrutinib IC50 to test compound IC50 for antiproliferative activity against human JeKo-1 cells; format: functional
MOLT-4 [17] = experiment: Potency index, ratio of ibrutinib IC50 to test compound IC50 for antiproliferative activity against human MOLT-4 cells; format: functional
MV4-11 [18] = experiment: Potency index, ratio of sorafenib IC50 to test compound IC50 for antiproliferative activity against human MV4-11 cells; format: functional
K562 [19] = experiment: Potency index, ratio of sorafenib IC50 to test compound IC50 for antiproliferative activity against human K562 cells; format: functional
[20] = biological target: Tyrosine-protein kinase BTK (Homo sapiens, UniProt Q06187); experiment: Inhibition of BTK phosphorylation in human JeKo-1 cells incubated for 72 hrs by Western blot analysis; format: cell-based; details: dose 30-750 nM
[21] = biological target: Receptor-type tyrosine-protein kinase FLT3 (Homo sapiens) (UniProt P36888); experiment: Inhibition of FLT3 phosphorylation in human JeKo-1 cells incubated for 72 hrs by Western blot analysis; format: cell-based; details: dose 30-750 nM
JeKo-1 [22] = experiment: Induction of apoptosis in human JeKo-1 cells assessed as necrotic cells at 30 nM incubated for 72 hrs by Annexin VFITC/PI staining based flow cytometry analysis (reference value: 0.67%); format: functional
JeKo-1 [23] = experiment: Induction of apoptosis in human JeKo-1 cells assessed as early apoptotic cells at 150 nM incubated for 72 hrs by Annexin VFITC/PI staining based flow cytometry analysis (reference value: 3.10%); format: functional
JeKo-1 [24] = experiment: Induction of apoptosis in human JeKo-1 cells assessed as early apoptotic cells at 750 nM incubated for 72 hrs by Annexin VFITC/PI staining based flow cytometry analysis (reference value: 3.10%); format: functional
[25] = Metabolic stability in human liver microsome assessed as half life preincubated with compound for 5 mins followed by NADPH addition and measured upto 60 mins by LC-MS/MS analysis; format: ADME; details: liver microsomes, time < 65 min
[26] = Acute toxicity in ICR mouse assessed as animal survival at 585.9 mg/kg, ip measured for 2 weeks; format: organism-based; details: in vivo
[27] = Acute toxicity in ICR mouse assessed as animal survival at 468.8 mg/kg, ip measured for 2 weeks; format: organism-based; details: in vivo
[28] = Acute toxicity in ICR mouse assessed as animal survival at 300 mg/kg, ip measured for 2 weeks; format: organism-based; details: in vivo
[29] = Acute toxicity in ICR mouse assessed as animal survival at 240 mg/kg, ip measured for 2 weeks; format: organism-based; details: in vivo
JeKo-1 [30] = experiment: Antitumor activity against human JeKo-1 cells xenografted NOD/SCID mouse assessed as tumor growth inhibition at 50 mg/kg, ip measured for 16 days; format: functional; details: JeKo-1, 384 h, time 16 day, read-out: TGI
[31] = Toxicity in NOD/SCID mouse xenografted with human JeKo-1 cells assessed as effect on body weight at 25 to 50 mg/kg, ip measured for 16 days; format: organism-based; details: in vivo, 384 h, dose 25-50 mg/kg, time 16 day
[32] = Toxicity in NOD/SCID mouse xenografted with human JeKo-1 cells assessed as eating abnormalities at 25 to 50 mg/kg, ip measured for 16 days; format: organism-based; details: in vivo, 384 h, dose 25-50 mg/kg, time 16 day
[33] = Toxicity in NOD/SCID mouse xenografted with human JeKo-1 cells assessed as abnormal activity at 25 to 50 mg/kg, ip measured for 16 days; format: organism-based; details: in vivo, 384 h, dose 25-50 mg/kg, time 16 day
JeKo-1 [34] = experiment: Antitumor activity against human JeKo-1 cells xenografted NOD/SCID mouse assessed as reduction in tumor weight at 25 mg/kg, ip measured for 16 days; format: functional; details: time 16 day
MV4-11 [35] = experiment: cells; details: Homo sapiens, MV4-11, 72 h
MOLT-4 [36] = experiment: cells; details: Homo sapiens, MOLT-4, 72 h
Description: Antiproliferative activity against human MOLT-4 cells assessed as inhibition of cell growth incubated for 72 hrs by CCK8 assay

K562 [37] = experiment: cells; details: Homo sapiens, K562, 72 h
Description: Antiproliferative activity against human K562 cells assessed as inhibition of cell growth incubated for 72 hrs by CCK8 assay

Chain of Death-associated protein kinase 3 (Homo sapiens) (O43293 whole entry, looked up): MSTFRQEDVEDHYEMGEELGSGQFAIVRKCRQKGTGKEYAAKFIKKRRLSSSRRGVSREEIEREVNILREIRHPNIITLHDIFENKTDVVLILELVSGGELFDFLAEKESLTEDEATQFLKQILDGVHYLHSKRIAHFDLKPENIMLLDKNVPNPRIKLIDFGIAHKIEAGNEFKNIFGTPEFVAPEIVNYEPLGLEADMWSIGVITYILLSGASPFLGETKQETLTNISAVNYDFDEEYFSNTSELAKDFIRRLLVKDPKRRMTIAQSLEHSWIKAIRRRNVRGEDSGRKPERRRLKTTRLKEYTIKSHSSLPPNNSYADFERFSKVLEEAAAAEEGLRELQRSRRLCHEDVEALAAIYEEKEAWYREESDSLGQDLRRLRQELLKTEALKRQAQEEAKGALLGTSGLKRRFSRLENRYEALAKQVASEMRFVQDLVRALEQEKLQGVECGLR
Chain of Serine-protein kinase ATM (Homo sapiens) (Q13315 whole entry): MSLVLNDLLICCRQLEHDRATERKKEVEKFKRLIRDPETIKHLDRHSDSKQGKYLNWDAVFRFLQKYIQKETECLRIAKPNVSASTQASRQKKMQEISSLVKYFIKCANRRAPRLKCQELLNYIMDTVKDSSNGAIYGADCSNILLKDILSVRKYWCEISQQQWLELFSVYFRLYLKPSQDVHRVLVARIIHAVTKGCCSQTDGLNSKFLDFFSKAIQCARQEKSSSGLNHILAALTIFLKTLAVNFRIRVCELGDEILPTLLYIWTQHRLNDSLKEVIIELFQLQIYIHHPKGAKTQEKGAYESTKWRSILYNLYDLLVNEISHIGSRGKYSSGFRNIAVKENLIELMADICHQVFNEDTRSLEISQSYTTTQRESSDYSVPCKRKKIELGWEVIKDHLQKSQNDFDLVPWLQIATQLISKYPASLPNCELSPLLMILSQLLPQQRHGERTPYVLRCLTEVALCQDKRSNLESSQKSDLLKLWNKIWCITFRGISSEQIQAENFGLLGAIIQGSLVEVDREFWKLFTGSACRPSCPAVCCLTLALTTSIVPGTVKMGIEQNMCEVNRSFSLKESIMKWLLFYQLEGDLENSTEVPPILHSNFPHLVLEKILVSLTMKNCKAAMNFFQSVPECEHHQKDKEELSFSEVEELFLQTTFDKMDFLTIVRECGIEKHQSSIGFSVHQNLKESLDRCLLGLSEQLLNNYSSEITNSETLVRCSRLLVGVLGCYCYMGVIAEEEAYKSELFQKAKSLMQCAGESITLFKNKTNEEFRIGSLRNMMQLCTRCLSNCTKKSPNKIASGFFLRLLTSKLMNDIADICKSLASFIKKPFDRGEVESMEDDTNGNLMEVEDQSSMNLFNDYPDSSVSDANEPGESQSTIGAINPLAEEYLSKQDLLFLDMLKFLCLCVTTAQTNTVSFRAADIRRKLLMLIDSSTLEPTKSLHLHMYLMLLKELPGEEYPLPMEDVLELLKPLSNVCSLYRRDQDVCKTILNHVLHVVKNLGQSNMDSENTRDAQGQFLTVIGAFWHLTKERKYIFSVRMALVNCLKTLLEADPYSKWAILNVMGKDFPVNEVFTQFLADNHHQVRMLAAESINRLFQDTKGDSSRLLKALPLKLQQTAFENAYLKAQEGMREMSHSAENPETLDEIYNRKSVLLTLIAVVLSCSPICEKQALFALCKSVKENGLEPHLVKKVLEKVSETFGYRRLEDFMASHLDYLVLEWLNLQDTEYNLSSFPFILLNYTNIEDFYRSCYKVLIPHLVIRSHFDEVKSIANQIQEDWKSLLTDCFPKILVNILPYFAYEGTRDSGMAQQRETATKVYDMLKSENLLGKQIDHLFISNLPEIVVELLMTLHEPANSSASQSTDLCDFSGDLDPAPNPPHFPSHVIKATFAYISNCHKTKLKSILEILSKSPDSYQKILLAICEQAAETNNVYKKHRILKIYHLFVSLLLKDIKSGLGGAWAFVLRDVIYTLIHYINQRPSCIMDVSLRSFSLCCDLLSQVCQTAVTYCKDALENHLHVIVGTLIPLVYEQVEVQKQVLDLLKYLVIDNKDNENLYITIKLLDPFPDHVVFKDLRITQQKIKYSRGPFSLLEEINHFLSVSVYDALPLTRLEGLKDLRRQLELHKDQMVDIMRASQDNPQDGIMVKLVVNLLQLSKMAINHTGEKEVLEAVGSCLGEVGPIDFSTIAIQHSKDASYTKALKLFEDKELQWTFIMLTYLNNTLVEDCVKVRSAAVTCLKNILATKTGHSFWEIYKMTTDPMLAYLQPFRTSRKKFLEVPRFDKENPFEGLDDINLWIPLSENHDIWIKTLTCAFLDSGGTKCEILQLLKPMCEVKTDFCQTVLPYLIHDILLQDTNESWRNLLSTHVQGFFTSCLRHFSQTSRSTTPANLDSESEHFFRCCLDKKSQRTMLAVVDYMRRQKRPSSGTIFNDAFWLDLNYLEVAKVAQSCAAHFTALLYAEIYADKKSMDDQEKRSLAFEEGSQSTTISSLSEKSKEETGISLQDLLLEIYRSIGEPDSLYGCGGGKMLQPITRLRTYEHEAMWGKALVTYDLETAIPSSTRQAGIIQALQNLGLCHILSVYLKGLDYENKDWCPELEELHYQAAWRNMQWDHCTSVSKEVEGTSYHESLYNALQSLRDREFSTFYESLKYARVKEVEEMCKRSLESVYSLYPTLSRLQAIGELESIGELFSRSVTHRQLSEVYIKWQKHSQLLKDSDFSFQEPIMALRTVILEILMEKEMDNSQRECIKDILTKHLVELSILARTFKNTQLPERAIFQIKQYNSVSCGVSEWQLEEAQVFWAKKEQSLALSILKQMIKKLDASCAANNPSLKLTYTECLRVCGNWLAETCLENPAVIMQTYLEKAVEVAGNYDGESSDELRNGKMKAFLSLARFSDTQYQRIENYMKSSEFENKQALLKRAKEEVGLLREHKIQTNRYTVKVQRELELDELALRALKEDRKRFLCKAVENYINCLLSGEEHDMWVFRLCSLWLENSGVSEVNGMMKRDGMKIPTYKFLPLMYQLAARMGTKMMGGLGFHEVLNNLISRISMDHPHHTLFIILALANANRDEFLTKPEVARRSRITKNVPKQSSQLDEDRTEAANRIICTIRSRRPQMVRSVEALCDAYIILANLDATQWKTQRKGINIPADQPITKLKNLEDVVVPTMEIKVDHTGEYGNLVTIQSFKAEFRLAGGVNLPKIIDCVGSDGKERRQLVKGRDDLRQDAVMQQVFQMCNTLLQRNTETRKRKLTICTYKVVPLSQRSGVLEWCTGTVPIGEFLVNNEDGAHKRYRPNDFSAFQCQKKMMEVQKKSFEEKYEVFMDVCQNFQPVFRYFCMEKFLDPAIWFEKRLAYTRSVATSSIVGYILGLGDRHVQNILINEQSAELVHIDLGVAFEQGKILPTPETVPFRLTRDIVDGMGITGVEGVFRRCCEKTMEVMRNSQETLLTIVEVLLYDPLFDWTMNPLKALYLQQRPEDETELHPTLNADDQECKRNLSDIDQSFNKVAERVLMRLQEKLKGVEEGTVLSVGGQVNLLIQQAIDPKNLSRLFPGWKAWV
Chain of Mast/stem cell growth factor receptor Kit (Homo sapiens) (P10721 whole entry): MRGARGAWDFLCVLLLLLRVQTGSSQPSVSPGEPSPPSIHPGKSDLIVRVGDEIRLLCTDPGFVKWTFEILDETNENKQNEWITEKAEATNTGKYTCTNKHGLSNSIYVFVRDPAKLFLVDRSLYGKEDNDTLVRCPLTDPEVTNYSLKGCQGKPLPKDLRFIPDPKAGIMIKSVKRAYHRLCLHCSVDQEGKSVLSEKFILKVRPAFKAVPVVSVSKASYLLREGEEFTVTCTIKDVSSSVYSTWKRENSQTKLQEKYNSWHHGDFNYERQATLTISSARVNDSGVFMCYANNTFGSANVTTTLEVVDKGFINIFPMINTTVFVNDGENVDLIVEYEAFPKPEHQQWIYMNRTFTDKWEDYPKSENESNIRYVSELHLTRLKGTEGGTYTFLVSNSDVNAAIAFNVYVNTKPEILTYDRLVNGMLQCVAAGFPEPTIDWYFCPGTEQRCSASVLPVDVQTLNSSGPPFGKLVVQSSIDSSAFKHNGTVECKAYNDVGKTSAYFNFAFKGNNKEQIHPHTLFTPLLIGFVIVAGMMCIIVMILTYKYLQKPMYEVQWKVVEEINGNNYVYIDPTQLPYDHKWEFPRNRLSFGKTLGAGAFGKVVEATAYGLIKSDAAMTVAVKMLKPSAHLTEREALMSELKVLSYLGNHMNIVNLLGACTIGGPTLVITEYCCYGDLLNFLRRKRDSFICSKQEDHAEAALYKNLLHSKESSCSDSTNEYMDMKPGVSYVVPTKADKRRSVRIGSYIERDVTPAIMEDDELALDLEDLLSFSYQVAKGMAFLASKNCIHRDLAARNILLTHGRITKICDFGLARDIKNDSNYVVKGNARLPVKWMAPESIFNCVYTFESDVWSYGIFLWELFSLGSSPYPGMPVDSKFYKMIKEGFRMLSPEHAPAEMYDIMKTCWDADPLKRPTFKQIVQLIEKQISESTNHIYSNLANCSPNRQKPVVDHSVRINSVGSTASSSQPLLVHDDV
Chain of Mitogen-activated protein kinase 8 (Homo sapiens) (P45983 whole entry): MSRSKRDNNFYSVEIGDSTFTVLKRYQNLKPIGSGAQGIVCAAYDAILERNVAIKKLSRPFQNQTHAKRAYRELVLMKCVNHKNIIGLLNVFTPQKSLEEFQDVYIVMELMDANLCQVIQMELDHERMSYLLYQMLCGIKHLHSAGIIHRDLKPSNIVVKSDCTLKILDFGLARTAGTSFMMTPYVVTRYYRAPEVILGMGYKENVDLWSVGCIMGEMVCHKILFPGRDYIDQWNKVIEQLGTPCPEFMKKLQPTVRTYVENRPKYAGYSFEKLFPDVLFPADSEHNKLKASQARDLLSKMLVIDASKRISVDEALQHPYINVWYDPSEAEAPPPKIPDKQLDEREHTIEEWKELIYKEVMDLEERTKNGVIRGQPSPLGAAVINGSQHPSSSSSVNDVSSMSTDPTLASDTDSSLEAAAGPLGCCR

CN1CCN(c2ccc(Nc3ncc(F)c(Nc4ccccc4C(=O)NN)n3)cc2)CC1
IC50 [1]: 12 nM | inhibition [2]: -6% | inhibition [3]: 17% | inhibition [4]: 27% | inhibition [5]: 23% | inhibition [6]: 10% | inhibition [7]: 101% | inhibition [8]: 100% | inhibition [9]: 65% | inhibition [10]: 27% | inhibition [11]: 11% | inhibition [12]: -3% | inhibition [13]: 24% | inhibition [14]: 4% | inhibition [15]: 26% | Ratio IC50 (JeKo-1 [16]): 6 | Ratio IC50 (MOLT-4 [17]): 6 | Ratio IC50 (MV4-11 [18]): 1.3 | Ratio IC50 (K562 [19]): 1.3 | inhibition [20]: Dose-Dependent Effect | inhibition [21]: Dose-Dependent Effect | Activity (JeKo-1 [22]): 0.22% | Activity (JeKo-1 [23]): 25.6% | Activity (JeKo-1 [24]): 37.89% | half-life [25]: 41.5 min | survival at 336 h [26]: 0% | survival at 336 h [27]: 10% | survival at 336 h [28]: 60% | survival at 336 h [29]: 100% | inhibition in vivo at 50 mg/kg (JeKo-1 [30]): 79.8% | Activity [31]: Non-Toxic | Activity [32]: Non-Toxic | Activity [33]: Non-Toxic | Activity (JeKo-1 [34]): 0.31 g | IC50 (MV4-11 [35]): 3 nM | IC50 (MOLT-4 [36]): 11 nM | IC50 (K562 [37]): 930 nM

From ChEMBL document CHEMBL5385861, “Development of novel hydrazidoarylaminopyrimidine-based BTK/FLT3 dual inhibitors with potent in vivo anti-hematological malignancies effects” (Eur J Med Chem, 2023)
